Earlier results in patent US20080233144A1, “Use of the Mushroom Agaricus Blazei Murill for the Production of Medicaments Suitable for Treating Infections and Allergies” (priority 2004, published 2008).

Tested on: Streptococcus pneumoniae serotype 6B
Details: previous experiments

In the case of β-glucan, the “effect in the pneumococcus infection model when given via gavage” value is given as “did not have any effect”.
